Measurements: ChEMBL document CHEMBL1151277, “Sesquiterpene chromones from Ferula fukanensis and their nitric oxide production inhibitory effects” (J Nat Prod, 2005)
In brackets after ≈: the same amount, converted by molar mass.

Columns and labels:
RAW264.7 [1] = test: Inhibition of LPS and IFN-gamma-induced iNOS mRNA expression in mouse RAW264.7 cells for 8 hrs by RT-PCR analysis; assay type: functional, cell-based
RAW264.7 [2] = test: Inhibition of LPS and IFN-gamma-induced nitric oxide production in mouse RAW264.7 cells after 16 hrs by Griess assay; assay type: functional, cell-based; conditions: RAW264.7, 16 h

| Structure (SMILES) | Activity (RAW264.7 [1]) | IC50 (RAW264.7 [2]) |
| --- | --- | --- |
| CC(C)=CC(=O)/C=C(/C)CCC[C@]1(C)Oc2oc3cc(O)ccc3c(=O)c2[C@H]1C (relative stereo) [FUKANEFUROCHROMONE D] | Dose-dependent effect | 9.5 µg/mL (≈ 24 µM) |
| CC(C)=CCC/C(C)=C/CC[C@]1(C)Oc2oc3cc(O)ccc3c(=O)c2[C@H]1C |  | 4.1 µg/mL (≈ 10.7 µM) |
| CC(C)=CC(=O)C/C(C)=C/CC[C@]1(C)Oc2oc3cc(O)ccc3c(=O)c2[C@H]1C (relative stereo) [FUKANEFUROCHROMONE A] |  | 9.8 µg/mL (≈ 24.7 µM) |
| CC(C)=CC(=O)/C=C(\C)CCC[C@]1(C)Oc2oc3cc(O)ccc3c(=O)c2[C@H]1C (relative stereo) [FUKANEFUROCHROMONE C] |  | 11.5 µg/mL (≈ 29 µM) |
| CC(C)=CC(=O)C/C(C)=C/CC[C@@]1(C)Oc2oc3cc(O)ccc3c(=O)c2[C@H]1C (relative stereo) [FUKANEFUROCHROMONE B] |  | 8.9 µg/mL (≈ 22.4 µM) |
